This note sets out measurements from US20240041042A1, “1-(PYRIDYL)-5-AZINYLPYRAZOLE DERIVATIVES, AND THEIR USE FOR CONTROL OF UNDESIRED PLANT GROWTH” (Bayer Aktiengesellschaft, priority 2020, published 2024).

What all share (format): in vivo
The test system of one data set is Viola tricolor (VIOTR). As to the kind of experiment: Post-emergence herbicidal action against VIOTR. The note with it: 320 g/ha. In outline:
(§1)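 Greenhouse plants sprayed at the one-leaf stage, 2–3 weeks after sowing, with WP or EC formulations plus 0.5% additive at 600 l/ha water. Activity rated visually after about 3 weeks versus untreated controls (100% = dead, 0% = like control), at 320 g/ha or lower.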

Data set [1] concerns Matricaria inodora (MATIN). As to the kind of experiment: Post-emergence herbicidal action against MATIN. The note with it: dosage 320 g/ha. In outline:
as §1

The subject of data set [2] is Zea mays (ZEAMX). As to conditions: crop plant compatibility, 80 g/ha, effect vs untreated controls. In outline: (§2)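 One-leaf-stage crops (2–3 wk post-sowing, sandy loam, greenhouse) sprayed on green parts; 0.5% additive, 600 l/ha water. Rated by eye ~3 wk later, % vs untreated; suffixes a/b/c mark different dosages.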
The next data set relates to Oryza sativa (ORYSA). As to conditions: crop plant compatibility, effect in comparison to untreated controls. An outline of the steps: as §2
Data set [3] concerns Lolium rigidum (LOLRI). As to the kind of experiment: Pre-emergence herbicidal action against LOLRI. The note with it: dosage 320 g/ha. An outline of the steps: (§3)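 Seeds sown in pots and covered with soil; WP or EC formulations sprayed onto the soil surface at 600 l/ha water with 0.5% additive, at 320 g/ha or lower. Greenhouse growth for about 3 weeks, then visual scoring as % effect against untreated controls (100% = plants dead).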

Data set [4] relates to Zea mays (ZEAMX). The note with it: pre-emergence, 80 g/ha, crop plant compatibility, in comparison to untreated controls. In outline: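 Crop injury rated visually in percent against untreated plants roughly 3 weeks after treatment (0% no effect, 100% plants dead). Compounds, as WP or EC with 0.5% additive in 600 l/ha water, were applied to the covering soil right after sowing; greenhouse growth. Suffixes a, b, c denote different dosages.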

Data set [5] has as its system Verconica persica (VERPE). As to the kind of experiment: Post-emergence herbicidal action against VERPE. The note with it: 320 g/ha, VERPE. In outline: as §1
Data set [6] deals with Amaranthus retroflexus (AMARE). As to the kind of experiment: Pre-emergence herbicidal action against AMARE. As to conditions: 320 g/ha, visual scoring after about 3 weeks vs untreated controls. In outline:
as §3

For data set [7], the system named is Digitaria sanguinalis (DIGSA). As to the kind of experiment: Pre-emergence herbicidal action against DIGSA. As to conditions: dosage 320 g/ha. In outline:
as §3

In data set [8] the test system is Polygonum convolvulus (POLCO). As to the kind of experiment: Post-emergence herbicidal action against POLCO. An outline of the steps:
as §1

Data set [9] concerns Alopecurus myosuroides (ALOMY). As to the kind of experiment: Pre-emergence herbicidal action against ALOMY. As to conditions: 320 g/ha; scored visually after about 3 weeks; 100% = plants have died. An outline of the steps:
as §3

In data set [10] the test system is Pharbitis purpurea (PHBPU). As to the kind of experiment: Post-emergence herbicidal action against PHBPU. An outline of the steps: as §1
Data set [11] deals with Amaranthus retroflexus (AMARE). As to the kind of experiment: Post-emergence herbicidal action against AMARE. As to conditions: 320 g/ha, visual rating about 3 weeks after treatment. An outline of the steps: as §1
Data set [12] concerns Alopecurus myosuroides (ALOMY). As to the kind of experiment: Post-emergence herbicidal action against ALOMY. As to conditions: 320 g/ha, visual rating about 3 weeks after treatment vs untreated controls (100% = plants have died, 0% = like control plants). An outline of the steps: as §1
Data set [13] concerns Polygonum convolvulus (POLCO). As to the kind of experiment: Pre-emergence herbicidal action against POLCO. The note with it: dosage 320 g/ha. In outline: as §3
The test system of a further data set is Avena fatua (AVEFA). As to the kind of experiment: Post-emergence herbicidal action against AVEFA. The note with it: 320 g/ha, visual rating about 3 weeks after treatment. An outline of the steps:
as §1

In data set [14] the test system is Lolium rigidum (LOLRI). As to the kind of experiment: Post-emergence herbicidal action against LOLRI. The note with it: dosage 320 g/ha. In outline:
as §1

In data set [15] the test system is Digitaria sanguinalis (DIGSA). As to the kind of experiment: Post-emergence herbicidal action against DIGSA. As to conditions: 320 g/ha, visual rating about 3 weeks after treatment. An outline of the steps:
as §1

Where two headings read alike, the source gives them in different places.

On to `CCOC(=O)COc1nn(-c2ccccn2)c(-c2ccc(Cl)nc2)c1Cl` [Example I-241], for which the “Post-emergence action against VIOTR in %” value in the data set on Viola tricolor (VIOTR) is recorded as 80%. Further, the “Post-emergence action against MATIN in %” value in [1] came to 80%. For the same compound, the “Post-emergence action against ZEAMX in %” value with Zea mays (ZEAMX) [2] worked out at 0%. The “Post-emergence action against ORYSA in %” value in the data set with Oryza sativa (ORYSA) (80 g/ha) and with Oryza sativa (ORYSA) (320 g/ha) was 0% each time. Also, the “Pre-emergence action against LOLRI in %” value in the data set with Lolium rigidum (LOLRI) [3] was found to be 90%. Besides, the “Pre-emergence action against ZEAMX in %” value with Zea mays (ZEAMX) [4] was 0%. In addition, in data set [5], the “Post-emergence action against VERPE in %” value was 80%. For the same compound, the “Pre-emergence action against AMARE in %” value in [6] worked out at 90%. Besides, in data set [7], the “Pre-emergence action against DIGSA in %” value is listed as 90%. Moreover, the “Post-emergence action against POLCO in %” value in data set [8] (dosage 80 g/ha) and in [8] (dosage 320 g/ha) was 80% throughout. Besides, in [9], the “Pre-emergence action against ALOMY” value is 80%. The “Post-emergence action against PHBPU in %” value in [10] (dosage 80 g/ha) came to 80%; in data set [10] (dosage 320 g/ha), 90%. Besides, in [11], the “Post-emergence action against AMARE in %” value is reported as 80%.

As to `COC(=O)[C@@H](C)Oc1nn(-c2ccccn2)c(-c2ccc(Cl)nc2)c1Cl` [Example I-237], the “Post-emergence action against ALOMY in %” value in [12] was found to be 80%. Also, the “Post-emergence action against VIOTR in %” value in the data set on Viola tricolor (VIOTR) worked out at 80%. The “Pre-emergence action against POLCO in %” value in data set [13] worked out at 80%. For the same compound, the “Post-emergence action against ZEAMX in %” value in the data set on Zea mays (ZEAMX) [2] was found to be 10%. Besides, the “Post-emergence action against ORYSA in %” value amounted to 0% in the data set on Oryza sativa (ORYSA) (80 g/ha) and 20% in the data set on Oryza sativa (ORYSA) (320 g/ha). Also, in the data set with Lolium rigidum (LOLRI) [3], the “Pre-emergence action against LOLRI in %” value came to 90%. Also, the “Post-emergence action against AVEFA in %” value with Avena fatua (AVEFA) is recorded as 80%. For the same compound, the “Pre-emergence action against ZEAMX in %” value in the data set with Zea mays (ZEAMX) [4] worked out at 0%. The “Pre-emergence action against AMARE in %” value in [6] stood at 100%. Also, the “Pre-emergence action against DIGSA in %” value in [7] turned out to be 90%. Further, the “Post-emergence action against POLCO in %” value in data set [8] (dosage 320 g/ha) worked out at 80%. Besides, the “Post-emergence action against LOLRI in %” value in the data set on Lolium rigidum (LOLRI) [14] came out at 80%. Also, the “Pre-emergence action against ALOMY” value in [9] is reported as 90%. In addition, the “Post-emergence action against PHBPU in %” value in [10] (dosage 80 g/ha) was determined as 80%; in data set [10] (dosage 320 g/ha), 90%. Also, in [15], the “Post-emergence action against DIGSA in %” value amounted to 90%. Also, the “Post-emergence action against AMARE in %” value in [11] was determined as 90%.
